Tests used:
Factor VII = test: In vivo gene-silencing dose-response, UsiRNA against Factor VII in formulation, tail-vein injection; set-up: species or system mouse; conditions: normal Balb/c mice, single tail-vein IV injection, serum F-VII at 48 hr post dose; dose as active UsiRNA per kg; formulated with cholesterol, C18:2-DAB-C16, DSPE-PEG2k 51:31:17:1 mole %
Experimental: In FIG. 1 is shown a chart of the gene-silencing dose-response in vivo mouse for a UsiRNA against Factor VII administered by tail-vein injection in a formulation including the activity-generating delivery molecule C18:2-DAP(N,N-diMe)-C18:2. The calculated ED50 was 30 μg/kg. The x-axis of FIG. 1 refers to mgA/kg which is by pharmaceutical convention the mg of active UsiRNA per kg body weight. Here it refers to the fraction of UsiRNA that is duplexed, and encapsulated or carried by the activity-generating delivery molecules.
Animals were each administered a single tail-vein IV injection, and sacrificed at 48 hr post dose for analysis of serum F-VII.
The activity-generating molecule C18:2-DAP(N,N-diMe)-C18:2 was formulated with cholesterol, a second activity-generating molecule C18:2-DAB-C16, and DSPE-PEG2k at concentrations of 51:31:17:1 mole %, respectively.

TNS dye assay for pKa = type: physicochemical; conditions: pH 3.0 to 11.0, 30 min at 37° C.; for pKa: liposomes of the lipid with TNS dye in universal buffer, pH 3, liposome test sample, read-out: pKa as measured by TNS dye assay; for pKa as measured by TNS dye assay: liposome test sample
Experimental: To measure pH responsive fluorescence, a TNS/Liposome reaction mixture was prepared as follows: 16 μL of TNS at 1 mg/mL (dissolved in 20% DMF), 160 μL of liposome test sample at 1 mM and 3824 μL of H20. Briefly, in a Costar 96 well plate; 100 μL/well of 2× universal buffer was added (50 mM Citrate; 40 mM sodium phosphate; 40 mM ammonium acetate; 300 mM NaCl, the 2× buffer was titrated to different pHs, at 0.5 pH increments from pH 3.0 to pH 11.0 using NaOH or HCl). To each well containing the 100 of universal buffer, 100 μL of the TNS/Liposome reaction mixture is then added to achieve a final volume of 200 μL, a TNS concentration of 5.92 μM and a final lipid concentration of 20 μM per well. After 30 min at 37° C. the fluorescence was read at an excitation wavelength of 322 nm and emission wavelength of 431 nm. The pKa was determined at the pH corresponding to the midpoint between the maximum and the minimum fluorescence intensity, utilizing sigmoidal fit software.
TNS dye (2,6-TNS (2-(p-toluidinyl)naphthalene-6-sulfonic acid, sodium salt; Invitrogen T53; MW 335.4).

ApoB in Hep3B cells = test: In vitro gene silencing activity, formulation with UsiRNA against ApoB in Hep3B cells, quantitative RT-PCR; type: cell-based; conditions: UsiRNA DX10008, Hep3B, 24 h
Experimental: The methodology for determining the in vitro gene silencing activity of an activity-generating delivery molecule was as follows: Hep3B cells were transfected in triplicate, 96-well format with a formulation of the activity-generating delivery molecule and a UsiRNA against ApoB. After 24 h, cellular RNA was prepared and evaluated by quantitative RT-PCR for target ApoB and the normalizer 36B4 or GAPDH expression levels.
The in vitro activity was generated with a UsiRNA against ApoB in Hep3B cells.

Factor VII mRNA = test: In vivo gene knockdown in Balb/c mice, tail-vein injection of formulation with UsiRNA; set-up: species or system mouse; conditions: DMPE-PEG2k 2 mole %, UsiRNA against Factor VII mRNA
Text: In vivo gene knockdown activity was generated in Balb/c mice administered by tail-vein injection with a formulation including the activity-generating delivery molecule and a UsiRNA against Factor VII mRNA.

[1] = DSC measurement of 2nd melting behavior; type: physicochemical; conditions: heat/cool/heat cycle
Experimental: The 2nd melting behavior of activity-generating delivery molecules was assessed on a TA Instruments Q200 Differential Scanning calorimeter in a heat/cool/heat cycle by weighing 0.5 to 1.5 mg of the powder into an aluminum pan and heating to 175° C. at 20° C./min., cooling to −50° C. at 10° C./min., and heating to 200° C. at 20° C./min.
Without intending to be bound by any particular theory, the melting behavior of an activity-generating delivery molecule may relate to its ability to form lamellar, bilayer, or other ordered structures which can be useful for carrying an active agent to interact with, and enter a cellular compartment to generate pharmacological or biological activity. […] A substance having less ordered structures may provide greater membrane fusion ability which can be needed for delivery of the active agent to a cell. Thus, differential scanning calorimetry can be used to distinguish the properties of compounds with certain significant thermotropic phases or transitions from compounds with different properties and less significant thermotropic phases or transitions.

[2] = delivery molecule 25.00 mole %, CHOL 75.00 mole %
[3] = delivery molecule 33.33 mole %, DOPE 66.66 mole %
[4] = delivery molecule 50.00 mole %, CHOL 50.00 mole %
[5] = delivery molecule 50.00 mole %, DOPE 50.00 mole %
[6] = delivery molecule 66.66 mole %, CHOL 33.33 mole %
[7] = delivery molecule 66.66 mole %, DOPE 33.33 mole %
[8] = delivery molecule 75.00 mole %, DOPE 25.00 mole %
[9] = delivery molecule 25.00 mole %, DOPE 75.00 mole %
[10] = delivery molecule 33.33 mole %, CHOL 66.66 mole %
[11] = delivery molecule 75.00 mole %, CHOL 25.00 mole %

Row | Compound | calculated ED50, gene silencing in vivo (Factor VII) | pKa (TNS dye assay for pKa) | In vitro Gene Knockdown % (ApoB in Hep3B cells; [2]) | In vitro Gene Knockdown % (ApoB in Hep3B cells; [3]) | In vitro Gene Knockdown % (ApoB in Hep3B cells; [4]) | In vitro Gene Knockdown % (ApoB in Hep3B cells; [5]) | In vitro Gene Knockdown % (ApoB in Hep3B cells; [6]) | In vitro Gene Knockdown % (ApoB in Hep3B cells; [7]) | In vitro Gene Knockdown % (ApoB in Hep3B cells; [8]) | In vitro Gene Knockdown % (ApoB in Hep3B cells; [9]) | In vitro Gene Knockdown % (ApoB in Hep3B cells; [10]) | In vitro Gene Knockdown % (ApoB in Hep3B cells; [11]) | pKa as measured by TNS dye assay (TNS dye assay for pKa) | In vivo Gene Knockdown % (Factor VII mRNA; delivery molecule 49 mole %, CHOL 49 mole %) | In vivo Gene Knockdown % (Factor VII mRNA; delivery molecule 65.3 mole %, CHOL 32.7 mole %) | 2nd melting behavior, thermal transitions by differential scanning calorimetry [1]
1 | CCCCC/C=C\C/C=C\CCCCCCCCNC(=O)C(CN(C)C)NC(=O)CCCCCCC/C=C\C/C=C\CCCCC (stereo not drawn) | 0.03 mg/kg | 5.8 | 6% | 86% | 19% | 87% | 19% | 81% | 18% |  |  |  |  |  |  | 
2 | CCCCCCCC/C=C\CCCCCCCCNC(=O)C(CN)NC(=O)CCCCCCC/C=C\CCCCCCCC (stereo not drawn) [C18:1-DAP(NH3 + Cl—)-C18:1, N-(3-amino-1-((Z)-octadec-9-en-1-ylamino)-1-oxopropan-2-yl)oleamide] |  | 6 | 83% | 83% | 73% | 82% | 76% | 72% | 77% | 81% | 80% | 79% |  |  |  | 
3 | CCCCC/C=C\C/C=C\CCCCCCCCNC(=O)C(N)NC(=O)CCCCCCC/C=C\C/C=C\CCCCC (stereo not drawn) [C18:2-DAA-C18:2, (9Z,12Z)—N-(1-amino-2-((9Z,12Z)-octadeca-9,12-dien-1-ylamino)-2-oxoethyl) octadeca-9,12-dienamide] |  | 4.9 |  |  |  |  |  |  |  |  |  |  |  |  |  | 
4 | CCCCCC=CCC=CCCCCCCCC(=O)NC(CN(C)C)C(=O)NCCCCCCCCC=CCCCCCCCC (stereo not drawn) [C18:2-DAP(Me,Me)-C18:1] |  |  | 90% | 87% | 88% | 84% | 91% | 85% | 84% | 86% | 91% |  | 5.3 |  |  | 
5 | CCCCC/C=C\C/C=C\CCCCCCCCNC(=O)C(CN)NC(=O)CCCCCCC/C=C\C/C=C\CCCCC (stereo not drawn) [C18:2-DAP-C18:2, (9Z,12Z)—N-(3-amino-1-((9Z,12Z)-octadeca-9,12-dien-1-ylamino)-1-oxopropan-2-yl)octadeca-9,12-dienamide] |  | 7.6 |  |  |  |  |  |  |  |  |  |  |  |  |  | 
6 | CCCCC/C=C\C/C=C\CCCCCCCC(=O)NC(CN)C(=O)NCCCCCCCC/C=C\CCCCCCCC (stereo not drawn) [C18:2-Dap(NH3 + Cl—)-C18:1, (9Z,12Z)—N-(3-amino-1-((Z)-octadec-9-en-1-ylamino)-1-oxopropan-2-yl)octadeca-9,12-dienamide] |  |  | 64% | 83% | 56% | 83% | 61% | 69% | 48% | 85% | 62% | 52% |  |  |  | 
7 | CCCCC/C=C\C/C=C\CCCCCCCCNC(=O)C1CC(N(C)C)CN1C(=O)CCCCCCC/C=C\C/C=C\CCCCC (stereo not drawn) [C18:2-aminoPro(N—Me,N—Me)-C18:2] |  |  | 79% | 74% | 62% | 82% | 53% | 73% | 68% | 66% | 72% | 59% | 6.6 | 68% | 48% | 
8 | CCCCC/C=C\C/C=C\CCCCCCCCNC(=O)C(CCN)NC(=O)CCCCCCC/C=C\C/C=C\CCCCC (stereo not drawn) [C(18:2)oleoyl-DAB-C(18:2)alkenylamino, (9Z,12Z)—N-(4-amino-1-((9Z,12Z)-octadcca-9,12-dien-1-ylamino)-1-oxobutan-2-yl) octadeca-9,12-dienamide] |  |  |  |  |  |  |  |  |  |  |  |  |  |  |  | complete lack of thermal transition peaks
9 | CCCCCCCCCCCCCCCCCCNC(=O)C(CCNC(=N)N)NC(=O)CCCCCCCCCCCCCCCCC (stereo not drawn) [CH3(CH2)16(CO)-norArg-NH(CH2)17CH3, reference compound] |  |  |  |  |  |  |  |  |  |  |  |  |  |  |  | presence of significant thermal or melting transitions

Reference: patent US20150073038A1 (Marina Biotech, Inc., priority 2009, published 2015)
